Assays:
QR2 = target: T1, QR2 (Homo sapiens, UniProt P16083); conditions: literature statement; cited from earlier work
T1 sequence (P16083 1-231): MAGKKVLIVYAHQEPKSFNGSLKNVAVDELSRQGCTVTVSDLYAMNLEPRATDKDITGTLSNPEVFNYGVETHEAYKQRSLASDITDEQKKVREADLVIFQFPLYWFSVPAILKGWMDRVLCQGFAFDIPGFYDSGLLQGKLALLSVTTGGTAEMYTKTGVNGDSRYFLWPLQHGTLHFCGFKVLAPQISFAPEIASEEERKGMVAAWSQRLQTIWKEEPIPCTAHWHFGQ

rats [1] = test: LI-CTA protocol: positive taste memory after QR2 inhibitor injection; format: in vivo, rat; conditions: n=8; for Aversion index (AI): 0.1% saccharin, inhibitor 10 mg/kg i.p. one hour before pre-exposure, choice test three days after LiCl, mean+/-SEM; for AI compared with vehicle-injected groups (CTA and LI-CTA): Fisher's LSD post-hoc test
Protocol: (§1) Subjects—Adult male Wistar Hola rats (Harlan Laboratories, Jerusalem) within a weight range of 200-300 gr (corresponding to an age of 8 to 12 weeks) were used for this study. They were maintained on a 12 hour light/dark cycle and all experiments were carried out during the light cycle. Additionally, the rats had ad libtum access to food and water unless otherwise indicated. The procedures were performed in strict accordance with the University of Haifa regulations and the US National Institutes of Health guidelines (NIH publication number 8023).
(§2) The vehicle—In all of the experiments in which we utilized pharmacological agents they were prepared in physiological saline. Physiological saline was prepared in house by dissolving NaCl in DDW (0.9% w/v). The physiological saline was injected to the controls in all experiments in which the test group(s) was injected with a pharmacological agent. The same volume of the vehicle was injected as the pharmacological agent.
(§3) QR2 inhibitors—We used two inhibitors of QR2 activity, S29434 and S26695, obtained from Pharmacolgie Moleculaire et Cellulaire, Institut de Recherches Servier. The inhibitors were dissolved in dimethyl sulfoxide (DMSO) and then added to physiological saline. The final concentration of dimethyl sulfoxide in the physiological saline was 5%. These inhibitors were injected prior to the learning process intraperitoneally (i.p.) 10 mg/kg.
(§4) Aversion index—the aversion index is calculated by the following equation [(total water ingested/(novel taste liquid ingested+water ingested))*100].
(§5) Conditioned Taste Aversion (CTA)—Two groups of rats were deprived from water for a period of 24 hours. This was followed by 3 days of restriction were the rats received two pipettes each filled with 10 ml of water for 20 minutes each day. On the fourth day both groups received two pipettes each filled with 10 ml of an unfamiliar tasting liquid, either saccharine (0.1% w/v) or NaCl (0.3% w/v), for 20 minutes. Forty minutes following the exposure to the novel liquid the rats in the experimental group received an injection of LiCl (prepared in double distilled water (DDW)) (2% bodyweight, intraperitoneally (i.p.)) and those in the control received an injection of physiological saline (2% bodyweight, i.p.).
LI-CTA learning paradigm. This paradigm presents the animal with a novel taste. The animal is then given 48 hours during which it will form a memory of the taste and will consider the taste to be a safe taste. The animal will then be presented with the taste again and then injected with LiCl in order to induce malaise. Normally when an animal is presented with a taste and then has malaise induced (CTA) the animal will form a very high aversion to that taste. […]

rats [2] = test: CTA protocol with NaCl: negative taste memory after QR2 inhibitor injection; format: in vivo, rat; conditions: n=8; for AI compared with vehicle-injected group: CTA with NaCl, Fisher's LSD test; for Aversion index (AI): CTA, 0.5% NaCl, LiCl 0.03M, inhibitor 10 mg/kg i.p. one hour before, mean+/-SEM
Protocol: as §1, §2, §3, §4
as §5, with “On the fourth day both groups received two pipettes each filled with 10 ml of an unfamiliar tasting liquid, either saccharine (0.1% w/v) or NaCl (0.3% w/v), for 20 minutes.” left out
M&M—We used three groups in this experiment, all of which were subjected to three days of water restriction. Following the three day water restriction period one group was injected with the vehicle; one group with S29434; one group with S26695. Then, one hour after the injections, all three groups were subjected to the CTA protocol: we gave them access to two pipettes containing 10 ml of 0.5% w/v NaCl each (a novel taste) for 20 minutes (in this experiment NaCl as the novel taste was used since CTA conducted with NaCl leads to a lower AI which prevents a ceiling effect from occurring and allows us to evaluate if the inhibitors generate an increase in learning and therefore a higher AI). […]

SMILES | QR2 inhibition (QR2) | Aversion index (AI) (rats [1]) | AI compared with vehicle-injected groups (CTA and LI-CTA) (rats [1]) | AI compared with vehicle-injected group (rats [2]) | Aversion index (AI) (rats [2])
COc1ccc2[nH]cc(CCNC(C)=O)c2c1 [Melatonin] | inhibits QR2 activity | – | – | – | –
COc1ccc2c(n1)c(CCNC(=O)c1ccco1)c1n2Cc2cccnc2-1 [S29434, N-[2-(2-methoxy-6h-dipyrido[2,3-α:3,2-e]pyrrolizin-11-yl)ethyl]-2-furamide] | – | 56.16+/−6.15 | significantly lower AI | significantly higher AI | 92%
Oc1ccc(/C=C/c2cc(O)cc(O)c2)cc1 [resveratrol] | efficiently inhibits QR2 | – | – | – | –
CNS(=O)(=O)c1ccc2cccc(CCNC(C)=O)c2c1 [S26695, N-[2-(7-methylaminosulfonyl-1-naphthyl)ethyl]acetamide] | – | 68.44+/−4.44 | significantly lower AI | significantly higher AI | 86.84+/−2.17

From US10676747B2, “Methods for improving cognitive function via modulation of quinone reductase 2” (Carmel-Haifa University Economic Corp. Ltd., priority 2014, dated 2020)
